Tests used:
human iPS cells [1] = test: Quantitative RT-PCR of cells differentiated from human iPS cells, with additives in the endodermal cell to primitive gut tube (PGT) cell step; format: cell-based; details: added to medium for 3 days when inducing endodermal cells into PGT cells (0.67 µM LDN193189, 1 µM EC23); compared to cells of Comparative Example 1; standardized by OAZ1; FIG. 1
Description: Differentiation was induced by the same method as in Comparative Example 1 up to the endodermal cells. For induction of differentiation from the endodermal cells into primitive gut tube (PGT) cells, the suspension culture was implemented for 3 days in a medium obtained by adding 0.67 µM LDN193189 to the medium used in Comparative Example 1, a medium obtained by adding 1 µM EC23 to the medium used in Comparative Example 1, or a medium obtained by adding both of them to the medium used in Comparative Example 1. In addition, 2.5 µM Y-27632 was added to the above-mentioned medium for the purpose of maintaining the shape of the clumps. A 30 mL single-use bioreactor was mounted on a six-channel magnetic stirrer, and while stirring at the speed of 45 rpm, the suspension culture was implemented in a 5% CO2 incubator at 37° C. Induction of differentiation after posterior foregut (PFG) cells was performed in the same method as in Comparative Example 1.
Total RNA was isolated and purified from the cells obtained by inducing differentiation in (1) using Isogen (Nippon Gene), and cDNA was synthesized from the obtained total RNA using PrimeScriptII (TaKaRa Bio Inc.). Using the obtained cDNA as a template, quantitative PCR was implemented by means of a MyiQ qPCR machine (Bio-Rad), using GoTaq qPCR master mix (Promega). For the detection, the intercalation method using SYBR Green was used, and for the gene expression level comparison, the relative quantification method by means of the ΔΔCt method or the ΔCt method was used. The expression level of each gene was standardized by OAZ1 which is a housekeeping gene.

human iPS cells [2] = test: Measurement of GCG (glucagon) secretion amount by Glucagon ELISA; format: cell-based; details: ascorbic acid removed from differentiation medium after PGT cells (Example 2) compared to medium with 0.25 mM ascorbic acid (Example 1); 2.0 mM glucose, 1 hour; FIG. 2
Description: Primitive gut tube (PGT) cells were produced from human iPS cells by the same method as in Example 1. The obtained primitive gut tube (PGT) cells were induced to differentiate into cells after posterior foregut (PFG) cells using a medium obtained by removing ascorbic acid from the medium of Comparative Example 1. The cells obtained by inducing differentiation in (1) were recovered in 2 × 10^6 cells and cultured for 30 minutes in a DMEM medium (containing 2 mM glucose) containing 10 mM HEPES and 0.1 (volume/volume)% BSA. Thereafter, the cells were washed twice with a DMEM medium (without glucose) containing 10 mM HEPES and 0.1 (volume/volume)% BSA. Thereafter, the cells were cultured for 1 hour in a DMEM medium containing 1 mL of 2.0 mM glucose, 10 mM HEPES, and 0.1 (volume/volume)% BSA. Thereafter, the GCG concentration contained in the culture supernatant was measured using a Glucagon ELISA 10 µl Kit (Mercodia). The GCG secretion amounts of the cells obtained in Example 1 and Comparative Example 1 were also measured as comparison targets by the above-mentioned method.

In the case of `CC1(C)CCC(C)(C)c2cc(C#Cc3ccc(C(=O)O)cc3)ccc21` [EC23], the “expression level of the GCG gene” value (human iPS cells [1]) is reported as “up-regulation”.
For `c1ccc2c(-c3cnn4cc(-c5ccc(N6CCNCC6)cc5)cnc34)ccnc2c1` [LDN193189], the “expression level of the INS gene” value (human iPS cells [1]) was “down-regulation” and the “expression level of the NKX6.1 gene” value (human iPS cells [1]) was “down-regulation”.
`O=C1O[C@H]([C@@H](O)CO)C(O)=C1O` [ascorbic acid] was tested, and the glucagon secretion amount (human iPS cells [2]) was “larger”.

From US20230174945A1, “METHOD FOR INDUCING DIFFERENTIATION INTO PANCREATIC ALPHA CELLS” (KANEKA CORPORATION, priority 2020, published 2023)
